Data as given in patent publication US20020137929A1, “1 - (3-heterocyclylphenyl) isothiourea, -isourea, -guanidine and -amidine herbicidal agents” (Intellectual Property Department, BASF Aktiengesellschaft, priority 1998, published 2002).

What was measured:
GALAP (Galium) [1] = test: Preemergence herbicidal evaluation; assay type: in vivo, Galium aparine; conditions: rated 4-5 weeks after treatment, rating scale 0-9
In short: (§1)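 In this greenhouse assay, monocot and dicot seeds are planted in soil and treated prior to emergence with an aqueous acetone spray (about 0.0156-0.500 kg/ha). Plants are assessed visually against control on a 0-9 scale after 4-5 weeks.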

AMBEL (Ragweed, Common) = test: Postemergence herbicidal evaluation; assay type: in vivo, Ambrosia artemisifolia; conditions: postemergence
In short: (§2)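 Seedlings grown about two weeks were sprayed at 40 psi with compound dispersed in 50/50 acetone/water plus 0.5% TWEEN 20, at about 0.0156 to 0.500 kg/ha. Plants were kept in the greenhouse and scored 4–5 weeks later on a 0–9 visual scale against untreated controls.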

[2] = tested on: ECHORC (Watergrass (Calif.)); test: Preemergence weed control under flooded paddy conditions; assay type: in vivo, Echinochloa oryzoides; conditions: rated 3-4 weeks after treatment
In short: (§3)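 Seeds or propagules sown in top 0.5 cm of silt loam soil, flooded 1.5 to 3 cm above surface throughout. Compound in 50/50 v/v aqueous/acetone pipetted into flood water at about 0.0313 to 0.500 kg/ha. Visual 0-9 rating versus control after three to four weeks in greenhouse.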

[3] = tested on: SAGPY (Arrowhead (Pygmaea)); test: as above; assay type: in vivo, Sagittaria pygmaea; conditions: rated 3-4 weeks after treatment
In short: as §3

[4] = tested on: TRZAWR (Wheat, Winter, cv Riband); test: Postemergence herbicidal evaluation; assay type: in vivo, Triticum aestivum; conditions: postemergence
In short: as §2

SETVI (Foxtail, Green) = test: Preemergence herbicidal evaluation; assay type: in vivo, Setaria viridis; conditions: rated 4-5 weeks after treatment, rating scale 0-9
In short: as §1

GALAP (Galium) [5] = test: Postemergence herbicidal evaluation; assay type: in vivo, Galium aparine; conditions: postemergence
In short: as §2

MOOVA (Monochoria) = test: Preemergence weed control under flooded paddy conditions; assay type: in vivo, Monochoria vaginalis; conditions: rated 3-4 weeks after treatment
In short: as §3

[6] = tested on: GLXMAW (Soybean, Williams); test: Postemergence herbicidal evaluation; assay type: in vivo, Glycine max, (L.) Merr. cv Williams; conditions: postemergence
In short: as §2

ORYSAT (Rice, Tebonnet) = test: Preemergence herbicidal evaluation; assay type: in vivo, Oryza sativa, (L.) Tebonnet; conditions: rated 4-5 weeks after treatment, rating scale 0-9
In short: as §1

CASOB (Sicklepod) = test: Postemergence herbicidal evaluation; assay type: in vivo, Cassia obtusifolia; conditions: postemergence
In short: as §2

CYPSE (Flatsedge) = test: Preemergence weed control under flooded paddy conditions; assay type: in vivo, Cyperus serotinus; conditions: rated 3-4 weeks after treatment
In short: as §3

SMILES | Preemergence herbicidal rating GALAP (GALAP (Galium) [1]; rate 0.0625 kg/ha) | Preemergence herbicidal rating GALAP (GALAP (Galium) [1]; rate 0.1250 kg/ha) | Preemergence herbicidal rating GALAP (GALAP (Galium) [1]; rate 0.2500 kg/ha) | Herbicidal rating AMBEL (AMBEL (Ragweed, Common); rate 0.0156 kg/ha) | Herbicidal rating AMBEL (AMBEL (Ragweed, Common); rate 0.0313 kg/ha) | Herbicidal rating AMBEL (AMBEL (Ragweed, Common); rate 0.0625 kg/ha) | herbicidal effect rating, ECHORC ([2]; 0.1250 kg/ha) | herbicidal effect rating, ECHORC ([2]; 0.2500 kg/ha) | herbicidal effect rating, SAGPY ([3]; 0.1250 kg/ha) | herbicidal effect rating, SAGPY ([3]; 0.2500 kg/ha) | Herbicidal rating TRZAWR ([4]; rate 0.0156 kg/ha) | Herbicidal rating TRZAWR ([4]; rate 0.0313 kg/ha) | Herbicidal rating TRZAWR ([4]; rate 0.0625 kg/ha) | Preemergence herbicidal rating SETVI (SETVI (Foxtail, Green); rate 0.0625 kg/ha) | Preemergence herbicidal rating SETVI (SETVI (Foxtail, Green); rate 0.1250 kg/ha) | Preemergence herbicidal rating SETVI (SETVI (Foxtail, Green); rate 0.2500 kg/ha) | Herbicidal rating GALAP (GALAP (Galium) [5]; rate 0.0156 kg/ha) | Herbicidal rating GALAP (GALAP (Galium) [5]; rate 0.0313 kg/ha) | Herbicidal rating GALAP (GALAP (Galium) [5]; rate 0.0625 kg/ha) | herbicidal effect rating, MOOVA (MOOVA (Monochoria); 0.1250 kg/ha) | further results
Cn1c(C(F)(F)F)cc(=O)n(-c2cc(N=C3SCC(=O)N3Cc3ccccn3)c(Cl)cc2F)c1=O [Compound 131] | 3.0 | 2.0 | 9.0 | 7.0 | 9.0 | 9.0 | 2.0 | 4.0 | 0.0 | 2.0 | 3.0 | 3.0 | 3.0 | 0.0 | 0.0 | 3.0 | 1.0 | 3.0 | 3.0 | 0.0 | Preemergence herbicidal rating GALAP (GALAP (Galium) [1]; rate 0.0313 kg/ha): 0.0; Preemergence herbicidal rating SETVI (SETVI (Foxtail, Green); rate 0.0313 kg/ha): 0.0; herbicidal effect rating, MOOVA (MOOVA (Monochoria); 0.2500 kg/ha): 2.0; Herbicidal rating GLXMAW ([6]; rate 0.0156 kg/ha): 4.5; Herbicidal rating GLXMAW ([6]; rate 0.0313 kg/ha): 5.0; Herbicidal rating GLXMAW ([6]; rate 0.0625 kg/ha): 5.5; Preemergence herbicidal rating ORYSAT (ORYSAT (Rice, Tebonnet); rate 0.0313 kg/ha): 0.0; Preemergence herbicidal rating ORYSAT (ORYSAT (Rice, Tebonnet); rate 0.0625 kg/ha): 0.0; Preemergence herbicidal rating ORYSAT (ORYSAT (Rice, Tebonnet); rate 0.1250 kg/ha): 0.0; Preemergence herbicidal rating ORYSAT (ORYSAT (Rice, Tebonnet); rate 0.2500 kg/ha): 0.0; Herbicidal rating CASOB (CASOB (Sicklepod); rate 0.0156 kg/ha): 1.0; Herbicidal rating CASOB (CASOB (Sicklepod); rate 0.0313 kg/ha): 1.0; Herbicidal rating CASOB (CASOB (Sicklepod); rate 0.0625 kg/ha): 3.0; herbicidal effect rating, CYPSE (CYPSE (Flatsedge); 0.1250 kg/ha): 0.0; herbicidal effect rating, CYPSE (CYPSE (Flatsedge); 0.2500 kg/ha): 0.0
Cn1c(C(F)(F)F)cc(=O)n(-c2cc(N=C3SCC(=O)N3Cc3cccnc3)c(Cl)cc2F)c1=O [Compound 132, 3-{4-Chloro-2-fluoro-5-{[4-oxo-3-(3-pyridylmethyl)-2-thiazolidinylidene]amino}phenyl}-1-methyl-6-(trifluoromethyl)-2,4 (1H,3H)-pyrimidinedione] | 4.0 | 4.0 | 5.0 | 5.0 | 9.0 | 9.0 | 4.0 | 6.0 | 0.0 | 0.0 | 3.0 | 3.5 | 4.0 | 0.0 | 3.0 | 9.0 | 2.0 | 2.0 | 3.0 | 9.0 | herbicidal effect rating, ECHORC ([2]; 0.0313 kg/ha): 3.0; herbicidal effect rating, ECHORC ([2]; 0.0625 kg/ha): 4.0; herbicidal effect rating, SAGPY ([3]; 0.0313 kg/ha): 0.0; herbicidal effect rating, SAGPY ([3]; 0.0625 kg/ha): 0.0; herbicidal effect rating, MOOVA (MOOVA (Monochoria); 0.0313 kg/ha): 6.0; herbicidal effect rating, MOOVA (MOOVA (Monochoria); 0.0625 kg/ha): 9.0; herbicidal effect rating, MOOVA (MOOVA (Monochoria); 0.2500 kg/ha): 9.0; Herbicidal rating GLXMAW ([6]; rate 0.0156 kg/ha): 5.0; Herbicidal rating GLXMAW ([6]; rate 0.0313 kg/ha): 5.0; Herbicidal rating GLXMAW ([6]; rate 0.0625 kg/ha): 6.0; Preemergence herbicidal rating ORYSAT (ORYSAT (Rice, Tebonnet); rate 0.0625 kg/ha): 0.0; Preemergence herbicidal rating ORYSAT (ORYSAT (Rice, Tebonnet); rate 0.1250 kg/ha): 0.0; Preemergence herbicidal rating ORYSAT (ORYSAT (Rice, Tebonnet); rate 0.2500 kg/ha): 1.0; Herbicidal rating CASOB (CASOB (Sicklepod); rate 0.0156 kg/ha): 1.0; Herbicidal rating CASOB (CASOB (Sicklepod); rate 0.0313 kg/ha): 1.0; Herbicidal rating CASOB (CASOB (Sicklepod); rate 0.0625 kg/ha): 6.0; herbicidal effect rating, CYPSE (CYPSE (Flatsedge); 0.0313 kg/ha): 0.0; herbicidal effect rating, CYPSE (CYPSE (Flatsedge); 0.0625 kg/ha): 0.0; herbicidal effect rating, CYPSE (CYPSE (Flatsedge); 0.1250 kg/ha): 0.0; herbicidal effect rating, CYPSE (CYPSE (Flatsedge); 0.2500 kg/ha): 0.0
